Assay results taken from publication PMC3039983, “Cloning, Expression, and Characterization of Thermotolerant Manganese Superoxide Dismutase from Bacillus sp. MHS47” (International Journal of Molecular Sciences, 2011).

Biological target: T1, MnSOD47 (Bacillus sp. MHS47, UniProt E9LK91)
T1 construct: gene sodA
Assay: xanthine oxidase/hypoxanthine-tetrazolium SOD assay, […] nm
Assay type: biochemical
Settings: superoxide generated in situ by xanthine oxidase/hypoxanthine; indirect read-out

T1 sequence (E9LK91 1-203 limits assumed): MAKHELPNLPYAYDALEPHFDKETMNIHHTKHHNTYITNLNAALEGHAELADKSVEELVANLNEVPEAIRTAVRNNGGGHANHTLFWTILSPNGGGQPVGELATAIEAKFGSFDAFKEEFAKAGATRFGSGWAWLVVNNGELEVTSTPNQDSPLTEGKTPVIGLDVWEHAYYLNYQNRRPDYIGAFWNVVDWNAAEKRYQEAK

In the case of [O]O [superoxide radical], the “xanthine oxidase/hypoxanthine-tetrazolium SOD assay, 450 nm” value is reported as “coupled to a tetrazolium salt to detect the reduction in superoxide radicals”.
